Target: T1, KATP channels (Homo sapiens, UniProt O60706)
T1 construct: TE671 human medulloblastoma cells were obtained from ATCC; host or cells: TE671 human medulloblastoma cells
Test: Potassium Channel Assay (FLIPR membrane potential, TE671 cells)
Type: cell-based
Conditions: 30 μM test compound; TE671 human medulloblastoma cells; FLIPR Membrane Potential Assay Dye; room temperature
Description: TE671 human medulloblastoma cells were obtained from ATCC and grown in Dulbecco's modified Eagle's medium (DMEM) supplemented with 10% fetal bovine serum, 100 U/ml penicillin and 100 U/ml streptomycine.
The day before testing, the cells were plated in black 96-well plates at 50 K/well. On the day of testing, the growth media was removed, then 100 μl of FLIPR buffer (20 mM 4-(2-hydroxyethyl)-1-piperizine ethane sulfonic acid (HEPES), 120 mM NaCl, 2 mM KCl, 2 mM CaCl2, 1 mM MgCl2, 5 mM Glucose) and 100 μl of Membrane Potential Assay Dye (Molecular Devices) dissolved in FLIPR buffer were added to each well. The cells were incubated at room temperature for 15 to 30 min.
The effect of test compounds on KATP channels were evaluated on a fluorometric imaging plate reader (FLIPR, Molecular Devices) at room temperature. After a baseline period, 50 μl of 5× stock solution of test compound prepared in FLIPR buffer was added and fluorescent change was monitored for 3 minutes. After this reading, glyburide, a KATP channel blocker, was added to a final concentration of 5 μM to check the specificity of the test compound as a KATP channel openers. Hyperpolarization resulting from KATP channel opening was observed as a decrease in fluorescent intensity.
Representative compounds of the present invention were tested according to the procedure described above, with results as listed in Table 2 below.

T1 sequence (O60706 1-1549 isoform O60706-2): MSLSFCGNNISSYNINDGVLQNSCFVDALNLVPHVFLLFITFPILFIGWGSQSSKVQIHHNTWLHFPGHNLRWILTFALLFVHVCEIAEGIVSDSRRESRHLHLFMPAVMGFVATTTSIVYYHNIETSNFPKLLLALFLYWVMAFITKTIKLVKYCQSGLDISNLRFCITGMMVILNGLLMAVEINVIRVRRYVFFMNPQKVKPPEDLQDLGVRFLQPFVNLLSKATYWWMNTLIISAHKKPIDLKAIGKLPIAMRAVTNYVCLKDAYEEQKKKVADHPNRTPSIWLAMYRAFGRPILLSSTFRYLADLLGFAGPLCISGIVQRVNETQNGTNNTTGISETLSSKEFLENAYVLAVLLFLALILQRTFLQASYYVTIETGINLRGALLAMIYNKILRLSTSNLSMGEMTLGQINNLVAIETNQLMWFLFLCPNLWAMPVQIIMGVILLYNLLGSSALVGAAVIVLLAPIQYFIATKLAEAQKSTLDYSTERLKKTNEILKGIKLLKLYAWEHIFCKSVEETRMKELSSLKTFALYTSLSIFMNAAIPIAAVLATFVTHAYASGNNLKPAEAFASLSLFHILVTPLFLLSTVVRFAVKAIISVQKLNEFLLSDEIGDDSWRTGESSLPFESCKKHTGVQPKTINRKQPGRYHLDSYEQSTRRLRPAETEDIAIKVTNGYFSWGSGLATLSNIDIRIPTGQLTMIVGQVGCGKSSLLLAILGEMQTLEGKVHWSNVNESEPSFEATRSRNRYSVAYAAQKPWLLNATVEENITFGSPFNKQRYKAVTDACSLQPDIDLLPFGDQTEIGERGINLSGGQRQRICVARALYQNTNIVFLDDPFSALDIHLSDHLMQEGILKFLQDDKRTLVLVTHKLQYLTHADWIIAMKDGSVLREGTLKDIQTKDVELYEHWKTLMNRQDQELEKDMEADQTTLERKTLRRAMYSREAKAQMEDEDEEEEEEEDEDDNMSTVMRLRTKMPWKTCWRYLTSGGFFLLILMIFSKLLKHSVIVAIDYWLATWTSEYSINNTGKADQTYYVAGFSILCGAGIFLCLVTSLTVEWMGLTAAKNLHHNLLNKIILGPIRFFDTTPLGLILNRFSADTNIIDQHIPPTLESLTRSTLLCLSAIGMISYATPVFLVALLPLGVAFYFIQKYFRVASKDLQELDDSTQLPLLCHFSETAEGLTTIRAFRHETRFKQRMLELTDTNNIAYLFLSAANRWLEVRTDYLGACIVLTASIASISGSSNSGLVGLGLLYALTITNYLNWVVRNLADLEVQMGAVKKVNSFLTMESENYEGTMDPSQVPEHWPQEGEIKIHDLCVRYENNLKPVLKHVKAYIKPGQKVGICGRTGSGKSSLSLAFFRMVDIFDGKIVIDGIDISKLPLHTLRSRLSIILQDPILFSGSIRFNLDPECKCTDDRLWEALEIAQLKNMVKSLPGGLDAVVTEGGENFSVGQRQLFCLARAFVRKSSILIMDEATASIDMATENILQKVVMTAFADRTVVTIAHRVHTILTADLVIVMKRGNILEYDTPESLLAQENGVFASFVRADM
T1 sequence (Q14654 whole entry partner): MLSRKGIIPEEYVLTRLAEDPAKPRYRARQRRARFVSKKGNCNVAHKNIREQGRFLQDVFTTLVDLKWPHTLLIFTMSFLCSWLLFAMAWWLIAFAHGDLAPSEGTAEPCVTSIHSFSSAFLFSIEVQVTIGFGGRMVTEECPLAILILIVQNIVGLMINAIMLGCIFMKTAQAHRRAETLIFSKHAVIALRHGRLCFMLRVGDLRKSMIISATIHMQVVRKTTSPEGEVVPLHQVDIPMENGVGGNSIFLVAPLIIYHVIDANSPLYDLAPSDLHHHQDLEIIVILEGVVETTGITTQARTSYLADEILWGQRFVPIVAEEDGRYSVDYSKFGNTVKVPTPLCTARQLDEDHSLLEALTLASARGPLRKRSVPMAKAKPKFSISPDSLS

| SMILES | % Stimulation @ 30 μM [%] |
| --- | --- |
| CCc1cc(C#N)ccc1Nc1c(NC2CCCC23CCCO3)c(=O)c1=O (centres unmarked) [Compound 1, 3-ethyl-4-[[2-(1-oxaspiro[4.4]non-6-ylamino)-3,4-dioxo-1-cyclobutene-1-yl]amino]-benzonitrile] | 94 |
| Cc1cc(Cl)cc(Cl)c1CNc1c(NC2CCCC23CCCO3)c(=O)c1=O (centres unmarked) [Compound 3, 3-[[(2,4-dichloro-6-methylphenyl)methyl]amino]-4-(1-oxaspiro[4.4]non-6-ylamino)-3-cyclobutene-1,2-dione] | 49 |
